Data taken from patent US12441733B2, “Substituted 2,4-dioxotetrahydropyrimidines as intermediates in the synthesis of bruton's tyrosine kinase inhibitors” (Novartis AG, priority 2018, dated 2025).

Molecular target: T1, IKZF3-GFP (Homo sapiens, UniProt Q96SW2+Q9UKT9)
T1 construct: expressed in transfected cells; host or cells: HEK293A (Invitrogen R70507), lentiviral transduction with pLenti6-IKZF3-GFP-Ires-RFP, blasticidin selection
Experiment: IKZF3-GFP protein abundance flow cytometry assay in HEK293A cells
Format: cell-based
Conditions: HEK293A IKZF3-GFP-iresRFP cells, 24 h; for DC50: GFP signal by flow cytometry; for IKZF3 deg Amax: % protein remaining at maximum degradation
Experimental: BTK-GFP and IKZF3-GFP protein abundance flow cytometry assay in HEK293A cells:
Degradation of BTK or IKZF3 was measured in HEK293A cells (Invitrogen R70507) expressing either BTK-GFP and RFP or IKZF3-GFP and RFP from a stably integrated bicistronic BTK-GFP-iresRFP or IKZF3-GFP-iresRFP construct, respectively. Reduction of the GFP signal measured by flow cytometry served as readout for BTK or IKZF3 degradation after degrader treatment.
By analogy the bicistronic pLenti6-IKZF3-GFP-iresRFP was engineered by gateway cloning of IKZF3 from a pENTR221-IKZF3(STOP-Leu) construct into the previously described pLenti6-DEST-GFP-Ires-RFP vector using the LR Clonase kit (Invitrogen 11791-019) according to the manufacturer's manual. All vectors described have been sequenced for verification.
ii) Engineering of Stably Expressing 293A BTK-GFP-Ires-RFP and IKZF3-GFP-Ires-RFP Sensor Cells
293A BTK-GFP-Ires-RFP and IKZF3-GFP-ires-RFP sensor cells were generated by lentiviral vector transduction using the pLenti6-BTK-GFP-Ires-RFP or pLenti6-IKZF3-GFP-Ires-RFP sensor construct described before. Lentiviral particles were produced in HEK293FT cells (Invitrogen R70007) by co-transfection of 500 ng pLenti6-BTK-GFP-ires-RFP or pLenti6-IKZF3-GFP-Ires-RFP, 500 ng delta8.71 and 200 ng pVSVG diluted in 100 μl OptiMEM serum free medium (Invitrogen #11058-021) that was mixed after 5 min preincubation with 3 μl of Lipofectamine2000 (Invitrogen #11668-019) in 97 μl OptiMEM serum free medium. The mix was incubated for another 20 min at RT and then added on 1 ml of a freshly prepared suspension of HEK293FT cells in a well of a 6-well plate (concentration 1.2×10^6 cells/ml). 1 day after transfection, the medium was replaced with 1.5 ml of complete growth medium (DMEM high Glucose+10% FCS+1% L-Glutamine+1% NEAA+1% NaPyr.). 48 h post transfection supernatant containing viral transducing particles was collected and frozen at −80° C.
Two days before transduction with viral particles 1×10^5 HEK293A cells (Invitrogen R70507) were seeded in 2 ml growth medium in a well of a 6-well plate. Infection was performed with 90 μl of collected supernatant containing viral transducing particles in 1 ml medium including 8 μg/ml polybrene. 24 h post infection, stably transfected cells were selected with blasticidin at a concentration of 8 μg/ml.
Iii) Quantitative BTK-GFP and IKZF3-GFP Abundance Measurements
Stable HEK293A-BTK-GFP-iresRFP cells were maintained in complete growth medium (DMEM high Glucose+10% FCS+1% L-Glutamine+1% NEAA+1% NaPyr.) with passaging performed twice per week. On Day 0, HEK293A-BTK-GFP-iresRFP or HEK293A-IKZF3-GFP-iresRFP and HEK293A-iresRFP cells were seeded at 10,000 cells/well in a 96-well microtiter plate in 260 μl complete medium. On Day 1, cells were treated in duplicate with 10-point 1:3 dilution series of compound using the HP D300 Digital Dispenser (Tecan). DMSO concentrations were normalized across the plate to 0.1%. On Day 2, after 24 h of incubation at 37° C., treatment media was discarded, cells rinsed with 100 μl/well PBS and then detached using 40 μl trypsin/well for 5 min. Trypsin was neutralized with 100 μl/well PBS+20% FCS). Flow cytometry was performed on the samples using the BD FACS CANTO II (Becton Dickinson). Cell identification was then performed using forward (FSC) vs. side scatter (SSC) plots. […] Median GFP values for 5,000 single cells are used to determine BTK levels. Median GFP values from HEK293A-iresRFP are used as a background signal and thus defining 0% BTK signal. Median GFP values from DMSO treated HEK293A-BTK-GFP-iresRFP or HEK293A-IKZF3-GFP-iresRFP are used to define 100% BTK signal for subsequent DC50 curves (concentration at 50% BTK degradation).

T1 sequence (Q9UKT9 whole entry): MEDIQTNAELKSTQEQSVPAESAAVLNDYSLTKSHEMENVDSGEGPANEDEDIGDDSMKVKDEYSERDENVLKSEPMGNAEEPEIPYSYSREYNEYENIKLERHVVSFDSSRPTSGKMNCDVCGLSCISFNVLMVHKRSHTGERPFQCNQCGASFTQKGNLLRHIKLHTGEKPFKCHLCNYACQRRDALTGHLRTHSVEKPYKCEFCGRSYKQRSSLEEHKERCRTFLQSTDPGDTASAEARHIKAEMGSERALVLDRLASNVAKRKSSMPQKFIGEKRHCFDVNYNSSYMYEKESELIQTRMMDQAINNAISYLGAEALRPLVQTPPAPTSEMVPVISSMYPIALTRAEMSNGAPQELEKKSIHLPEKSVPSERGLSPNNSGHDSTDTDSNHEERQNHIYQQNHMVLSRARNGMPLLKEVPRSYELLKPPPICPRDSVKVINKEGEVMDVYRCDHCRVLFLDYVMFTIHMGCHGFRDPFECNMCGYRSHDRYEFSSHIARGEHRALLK
T1 sequence (Q96SW2 whole entry): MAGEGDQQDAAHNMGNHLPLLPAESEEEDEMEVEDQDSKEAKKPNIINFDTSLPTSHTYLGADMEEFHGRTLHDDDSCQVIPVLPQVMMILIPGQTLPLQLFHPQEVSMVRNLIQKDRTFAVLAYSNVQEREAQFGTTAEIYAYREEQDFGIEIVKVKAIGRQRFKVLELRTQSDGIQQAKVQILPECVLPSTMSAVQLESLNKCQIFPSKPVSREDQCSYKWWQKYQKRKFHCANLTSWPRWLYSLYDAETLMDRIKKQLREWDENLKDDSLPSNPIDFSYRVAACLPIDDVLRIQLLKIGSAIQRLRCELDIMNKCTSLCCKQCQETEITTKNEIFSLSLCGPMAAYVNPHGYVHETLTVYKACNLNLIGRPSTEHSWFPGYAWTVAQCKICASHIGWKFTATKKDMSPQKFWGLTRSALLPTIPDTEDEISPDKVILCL
T1 sequence (Q16531 whole entry partner): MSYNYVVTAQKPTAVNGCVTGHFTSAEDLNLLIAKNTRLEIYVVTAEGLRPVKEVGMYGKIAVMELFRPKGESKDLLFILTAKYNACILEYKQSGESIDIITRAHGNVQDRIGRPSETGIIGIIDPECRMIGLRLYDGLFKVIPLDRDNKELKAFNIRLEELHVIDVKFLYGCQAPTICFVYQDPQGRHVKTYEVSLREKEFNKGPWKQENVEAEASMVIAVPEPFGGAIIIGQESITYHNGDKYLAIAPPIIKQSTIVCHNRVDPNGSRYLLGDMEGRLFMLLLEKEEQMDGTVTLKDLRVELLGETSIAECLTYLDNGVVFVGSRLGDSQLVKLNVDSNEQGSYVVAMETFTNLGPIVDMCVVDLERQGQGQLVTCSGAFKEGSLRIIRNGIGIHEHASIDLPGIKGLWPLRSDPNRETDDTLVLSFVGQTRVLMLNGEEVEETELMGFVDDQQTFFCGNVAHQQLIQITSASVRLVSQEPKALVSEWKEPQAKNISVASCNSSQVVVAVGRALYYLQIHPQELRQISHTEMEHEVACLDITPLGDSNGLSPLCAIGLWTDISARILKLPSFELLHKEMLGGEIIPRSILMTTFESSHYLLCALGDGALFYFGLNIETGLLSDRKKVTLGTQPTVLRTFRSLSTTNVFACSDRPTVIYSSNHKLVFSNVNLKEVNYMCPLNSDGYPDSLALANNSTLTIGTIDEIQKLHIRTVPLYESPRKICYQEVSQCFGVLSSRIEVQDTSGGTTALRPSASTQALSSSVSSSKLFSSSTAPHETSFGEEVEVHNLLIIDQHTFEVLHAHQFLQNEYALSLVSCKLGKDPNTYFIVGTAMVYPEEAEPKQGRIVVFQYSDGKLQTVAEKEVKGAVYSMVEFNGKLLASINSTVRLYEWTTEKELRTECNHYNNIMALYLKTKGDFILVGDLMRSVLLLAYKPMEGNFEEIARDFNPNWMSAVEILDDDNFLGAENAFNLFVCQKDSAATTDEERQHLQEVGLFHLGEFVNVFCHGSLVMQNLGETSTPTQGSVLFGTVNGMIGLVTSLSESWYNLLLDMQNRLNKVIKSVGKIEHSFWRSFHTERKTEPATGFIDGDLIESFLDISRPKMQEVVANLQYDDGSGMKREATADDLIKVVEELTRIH

Compound | DC50 [µM] | IKZF3 deg Amax [%]
Cc1c(NC(=O)c2ccc(C(C)(C)O)cc2F)cc(F)cc1-c1ncnc2[nH]c(-c3ccc(CN4CCC5(CC4)CCN(C(=O)c4ccc(F)c(N6CCC(=O)NC6=O)c4)CC5)cc3)cc12 [Compound 14, N-(3-(6-(4-((9-(3-(2,4-Dioxotetrahydropyrimidin-1(2H)-yl)-4-fluorobenzoyl)-3,9-diazaspiro[5.5]undecan-3-yl)methyl)phenyl)-7H-pyrrolo[2.3-d]pyrimidin-4-yl)-5-fluoro-2-methylphenyl)-2-fluoro-4-(2-hydroxypropan-2-yl)benzamide] | > 1.1 | 100.2
COc1ccc(C(=O)N2CCC(CN3CCC(Oc4ccc(-c5cc6c(-c7cc(F)cc(NC(=O)c8ccc(C(C)(C)O)cc8F)c7C)ncnc6[nH]5)cc4)CC3)CC2)cc1N1CCC(=O)NC1=O [Compound 19, N-(3-(6-(4-((1-((1-(3-(2,4-Dioxotetrahydropyrimidin-1(2H)-yl)-4-methoxybenzoyl)piperidin-4-yl)methyl)piperidin-4-yl)oxyl)phenyl)-7H-pyrrolo[2,3-d]pyrimidin-4-yl)-5-fluoro-2-methylphenyl)-2-fluoro-4-(2-hydroxypropan-2-yl)benzamide] | > 10 | 100.5
COc1ccc(C(=O)N2CCC3(CC2)CCN(C(C)(C)Cc2ccc(-c4cc5c(-c6cc(F)cc(NC(=O)c7ccc(C(C)(C)O)cc7F)c6C)ncnc5[nH]4)cc2)CC3)cc1N1CCC(=O)NC1=O [Compound 20, N-(3-(6-(4-(2-(9-(3-(2,4-Dioxotetrahydropyrimidin-1(2H)-yl)-4-methoxybenzoyl)-3,9-diazaspiro[5.5]undecan-3-yl)-2-methylpropyl)phenyl)-7H-pyrrolo[2,3-d]pyrimidin-4-yl)-5-fluoro-2-methylphenyl)-2-fluoro-4-(2-hydroxypropan-2-yl)benzamide] | > 1.1 | 93.3
COc1ccc(C(=O)N2CCN(C(=O)N3CCN(Cc4ccc(-c5cc6c(-c7cc(F)cc(NC(=O)c8ccc(C(C)(C)O)cc8F)c7C)ncnc6[nH]5)cc4)CC3)CC2)cc1N1CCC(=O)NC1=O [Compound 22, N-(3-(6-(4-((4-(4-(3-(2,4-Dioxotetrahydropyrimidin-1(2H)-yl)-4-methoxybenzoyl)piperazine-1-carbonyl)piperazin-1-yl)methyl)phenyl)-7H-pyrrolo[2,3-d]pyrimidin-4-yl)-5-fluoro-2-methylphenyl)-2-fluoro-4-(2-hydroxypropan-2-yl)benzamide] | > 10 | 99.7
Cc1ccc(C(=O)N2CCC3(CCN(Cc4ccc(-c5cc6c(-c7cc(F)cc(NC(=O)c8ccc(C(C)(C)O)cc8F)c7C)ncnc6[nH]5)cc4)CC3)CC2)cc1N1CCC(=O)NC1=O [Compound 27, N-(3-(6-(4-((9-(3-(2,4-Dioxotetrahydropyrimidin-1(2H)-yl)-4-methylbenzoyl)-3,9-diazaspiro[5.5]undecan-3-yl)methyl)phenyl)-7H-pyrrolo[2,3-d]pyrimidin-4-yl)-5-fluoro-2-methylphenyl)-2-fluoro-4-(2-hydroxypropan-2-yl)benzamide] | > 1.1 | 102.2
Cc1cc(F)c(C(=O)NCCCCCNCc2ccc(-c3cc4c(-c5cc(F)cc(NC(=O)c6ccc(C(C)(C)O)cc6F)c5C)ncnc4[nH]3)cc2)cc1N1CCC(=O)NC1=O [Compound 29, 5-(2,4-Dioxotetrahydropyrimidin-1(2H)-yl)-2-fluoro-N—(S-((4-(4-(5-fluoro-3-(2-fluoro-4-(2-hydroxypropan-2-yl)benzamido)-2-methylphenyl)-7H-pyrrolo[2,3-d]pyrimidin-6-yl)benzyl)amino)pentyl)-4-methylbenzamide] | > 3.3 | 98.6
Cc1ccc(C(=O)N(C)CCCCCNCc2ccc(-c3cc4c(-c5cc(F)cc(NC(=O)c6ccc(C(C)(C)O)cc6F)c5C)ncnc4[nH]3)cc2)cc1N1CCC(=O)NC1=O [Compound 30, 3-(2,4-Dioxotetrahydropyrimidin-1(2H)-yl)-N-(5-((4-(4-(5-fluoro-3-(2-fluoro-4-(2-hydroxypropan-2-yl)benzamido)-2-methylphenyl)-7H-pyrrolo[2,3-d]pyrimidin-6-yl)benzyl)amino)pentyl)-N,4-dimethylbenzamide] | > 3.3 | 101.1
COc1ccc(C(=O)N2CCC3(CCN(CCc4ccc(-c5cc6c(-c7cc(F)cc(NC(=O)c8ccc(C(C)(C)O)cc8F)c7C)ncnc6[nH]5)cc4)CC3)CC2)cc1N1CCC(=O)NC1=O [Compound 31, N-(3-(6-(4-(2-(9-(3-(2,4-Dioxotetrahydropyrimidin-1(2H)-yl)-4-methoxybenzoyl)-3,9-diazaspiro[5.5]undecan-3-yl)ethyl)phenyl)-7H-pyrrolo[2,3-d]pyrimidin-4-yl)-5-fluoro-2-methylphenyl)-2-fluoro-4-(2-hydroxypropan-2-yl)benzamide] | > 5.5 | 99.8

Next, values leading:

DC50 [µM] | IKZF3 deg Amax [%] | Compound
> 10 | 94.7 | COc1ccc(C(=O)N2CCC(OC3CCN(CCc4ccc(-c5cc6c(-c7cc(F)cc(NC(=O)c8ccc(C(C)(C)O)cc8F)c7C)ncnc6[nH]5)cc4)CC3)CC2)cc1N1CCC(=O)NC1=O [Compound 34, N-(3-(6-(4-(2-(4-((1-(3-(2,4-Dioxotetrahydropyrimidin-1(2H)-yl)-4-methoxybenzoyl)piperidin-4-yl)oxyl)piperidin-1-yl)ethyl)phenyl)-7H-pyrrolo[2,3-d]pyrimidin-4-yl)-5-fluoro-2-methylphenyl)-2-fluoro-4-(2-hydroxypropan-2-yl)benzamide]
> 10 | 94.5 | COc1ccc(C(=O)NCCN2CCOC3(CCN(Cc4ccc(-c5cc6c(-c7cc(F)cc(NC(=O)c8ccc(C(C)(C)O)cc8F)c7C)ncnc6[nH]5)cc4)CC3)C2)cc1N1CCC(=O)NC1=O [Compound 39, N-(3-(6-(4-((4-(2-(3-(2,4-dioxotetrahydropyrimidin-1(2H)-yl)-4-methoxybenzamido)ethyl)-1-oxa-4,9-diazaspiro[5.5]undecan-9-yl)methyl)phenyl)-7H-pyrrolo[2,3-d]pyrimidin-4-yl)-5-fluoro-2-methylphenyl)-2-fluoro-4-(2-hydroxypropan-2-yl)benzamide]
> 3.3 | 99.7 | COc1ccc(C(=O)NCCN2CCC3(CC2)CCN(Cc2ccc(-c4cc5c(-c6cc(F)cc(NC(=O)c7ccc(C(C)(C)O)cc7F)c6C)ncnc5[nH]4)cc2)CC3)cc1N1CCC(=O)NC1=O [Compound 44, N-(3-(6-(4-((9-(2-(3-(2,4-dioxotetrahydropyrimidin-1(2H)-yl)-4-methoxybenzamido)ethyl)-3,9-diazaspiro[5.5]undecan-3-yl)methyl)phenyl)-7H-pyrrolo[2,3-d]pyrimidin-4-yl)-5-fluoro-2-methylphenyl)-2-fluoro-4-(2-hydroxypropan-2-yl)benzamide]
> 1.1 | 99.7 | Cc1c(NC(=O)c2ccc(C(C)(C)O)cc2F)cc(F)cc1-c1ncnc2[nH]c(-c3ccc(CCN4CCC5(CC4)CCN(C(=O)c4ccc(F)c(N6CCC(=O)NC6=O)c4)CC5)cc3)cc12 [Compound 47, N-(3-(6-(4-(2-(9-(3-(2,4-dioxotetrahydropyrimidin-1(2H)-yl)-4-fluorobenzoyl)-3,9-diazaspiro[5.5]undecan-3-yl)ethyl)phenyl)-7H-pyrrolo[2,3-d]pyrimidin-4-yl)-5-fluoro-2-methylphenyl)-2-fluoro-4-(2-hydroxypropan-2-yl)benzamide]
